Several values for one entry are separate records, joined by “and”; a condition that tells them apart may be missing. Equal values may be shown once.
Assay: xn = mol fraction of the nth substance listed

CN[C@@H]1[C@H](O[C@H]2[C@H](O[C@H]3[C@H](O)[C@@H](O)[C@H](NC(=N)N)[C@@H](O)[C@@H]3NC(=N)N)O[C@@H](C)[C@]2(O)C=O)O[C@@H](CO)[C@H](O)[C@H]1O.CN[C@@H]1[C@H](O[C@H]2[C@H](O[C@H]3[C@H](O)[C@@H](O)[C@H](NC(=N)N)[C@@H](O)[C@@H]3NC(=N)N)O[C@@H](C)[C@]2(O)C=O)O[C@@H](CO)[C@H](O)[C@H]1O.O=S(=O)(O)O.O=S(=O)(O)O.O=S(=O)(O)O + O
Settings | viscosity
293.15 K, 101.3 kPa, x1 = 0.00018 | 1.053 mPa·s
293.15 K, 101.3 kPa, x1 = 0.0003604 | 1.102 mPa·s
293.15 K, 101.3 kPa, x1 = 0.00054 | 1.156 mPa·s
293.15 K, 101.3 kPa, x1 = 0.0007203 | 1.207 mPa·s
293.15 K, 101.3 kPa, x1 = 0.0009005 | 1.266 mPa·s
293.15 K, 101.3 kPa, x1 = 0.00108 | 1.328 mPa·s
293.15 K, 101.3 kPa, x1 = 0.00126 | 1.393 mPa·s
293.15 K, 101.3 kPa, x1 = 0.001439 | 1.446 mPa·s
298.15 K, 101 kPa, x1 = 7.6e-05 | 0.9256 mPa·s
298.15 K, 101 kPa, x1 = 0.0001 | 0.9434 mPa·s
298.15 K, 101 kPa, x1 = 0.00015 | 0.9504 mPa·s
298.15 K, 101 kPa, x1 = 0.000216 | 0.9744 mPa·s
298.15 K, 101 kPa, x1 = 0.000286 | 0.9974 mPa·s
298.15 K, 101 kPa, x1 = 0.0003 | 0.9849 mPa·s
298.15 K, 101 kPa, x1 = 0.000358 | 1.02 mPa·s
298.15 K, 101.3 kPa, x1 = 0.00018 | 0.939 mPa·s
298.15 K, 101.3 kPa, x1 = 0.0003604 | 0.985 mPa·s
298.15 K, 101.3 kPa, x1 = 0.00054 | 1.037 mPa·s
298.15 K, 101.3 kPa, x1 = 0.0007203 | 1.089 mPa·s
298.15 K, 101.3 kPa, x1 = 0.0009005 | 1.147 mPa·s
298.15 K, 101.3 kPa, x1 = 0.00108 | 1.192 mPa·s
298.15 K, 101.3 kPa, x1 = 0.00126 | 1.249 mPa·s
298.15 K, 101.3 kPa, x1 = 0.001439 | 1.296 mPa·s
298.15 K, 101.33 kPa, x1 = 7e-07 | 0.8964 mPa·s
298.15 K, 101.33 kPa, x1 = 9e-07 | 0.8973 mPa·s
298.15 K, 101.33 kPa, x1 = 1e-06 | 0.8981 mPa·s and 0.899 mPa·s and 0.8998 mPa·s
298.15 K, 101.33 kPa, x1 = 1.8e-06 | 0.9034 mPa·s
298.15 K, 101.33 kPa, x1 = 2e-06 | 0.9025 mPa·s and 0.9043 mPa·s
298.15 K, 101.33 kPa, x1 = 2.2e-06 | 0.9051 mPa·s
303.15 K, 101 kPa, x1 = 7.6e-05 | 0.8296 mPa·s
303.15 K, 101 kPa, x1 = 0.0001 | 0.8493 mPa·s
303.15 K, 101 kPa, x1 = 0.00015 | 0.8528 mPa·s
303.15 K, 101 kPa, x1 = 0.000216 | 0.8752 mPa·s
303.15 K, 101 kPa, x1 = 0.000286 | 0.8971 mPa·s
303.15 K, 101 kPa, x1 = 0.0003 | 0.8904 mPa·s
303.15 K, 101 kPa, x1 = 0.000358 | 0.919 mPa·s
303.15 K, 101.3 kPa, x1 = 0.00018 | 0.844 mPa·s
303.15 K, 101.3 kPa, x1 = 0.0003604 | 0.887 mPa·s
303.15 K, 101.3 kPa, x1 = 0.00054 | 0.936 mPa·s
303.15 K, 101.3 kPa, x1 = 0.0007203 | 0.981 mPa·s
303.15 K, 101.3 kPa, x1 = 0.0009005 | 1.035 mPa·s
303.15 K, 101.3 kPa, x1 = 0.00108 | 1.079 mPa·s
303.15 K, 101.3 kPa, x1 = 0.00126 | 1.126 mPa·s
303.15 K, 101.3 kPa, x1 = 0.001439 | 1.171 mPa·s
303.15 K, 101.33 kPa, x1 = 5e-07 | 0.8016 mPa·s
303.15 K, 101.33 kPa, x1 = 7e-07 | 0.8024 mPa·s
303.15 K, 101.33 kPa, x1 = 9e-07 | 0.8032 mPa·s
303.15 K, 101.33 kPa, x1 = 1e-06 | 0.804 mPa·s and 0.8048 mPa·s and 0.8056 mPa·s
303.15 K, 101.33 kPa, x1 = 1.8e-06 | 0.8089 mPa·s
303.15 K, 101.33 kPa, x1 = 2e-06 | 0.8064 mPa·s and 0.8097 mPa·s
303.15 K, 101.33 kPa, x1 = 2.2e-06 | 0.8105 mPa·s
305.15 K, 101 kPa, x1 = 0.0002 | 0.826 mPa·s
305.15 K, 101 kPa, x1 = 0.0004 | 0.8609 mPa·s
308.15 K, 101 kPa, x1 = 7.6e-05 | 0.7487 mPa·s
308.15 K, 101 kPa, x1 = 0.0001 | 0.7667 mPa·s
308.15 K, 101 kPa, x1 = 0.00015 | 0.771 mPa·s
308.15 K, 101 kPa, x1 = 0.000216 | 0.7923 mPa·s
308.15 K, 101 kPa, x1 = 0.000286 | 0.8134 mPa·s
308.15 K, 101 kPa, x1 = 0.0003 | 0.8077 mPa·s
308.15 K, 101 kPa, x1 = 0.000358 | 0.834 mPa·s
308.15 K, 101.3 kPa, x1 = 0.00018 | 0.764 mPa·s
308.15 K, 101.3 kPa, x1 = 0.0003604 | 0.806 mPa·s
308.15 K, 101.3 kPa, x1 = 0.00054 | 0.848 mPa·s
308.15 K, 101.3 kPa, x1 = 0.0007203 | 0.893 mPa·s
308.15 K, 101.3 kPa, x1 = 0.0009005 | 0.943 mPa·s
308.15 K, 101.3 kPa, x1 = 0.00108 | 0.984 mPa·s
308.15 K, 101.3 kPa, x1 = 0.00126 | 1.026 mPa·s
308.15 K, 101.3 kPa, x1 = 0.001439 | 1.072 mPa·s
310.15 K, 101 kPa, x1 = 0.0002 | 0.7448 mPa·s
310.15 K, 101 kPa, x1 = 0.0004 | 0.7702 mPa·s
313.15 K, 101 kPa, x1 = 7.6e-05 | 0.6801 mPa·s
313.15 K, 101 kPa, x1 = 0.0001 | 0.6932 mPa·s
313.15 K, 101 kPa, x1 = 0.00015 | 0.7016 mPa·s
313.15 K, 101 kPa, x1 = 0.000216 | 0.722 mPa·s
313.15 K, 101 kPa, x1 = 0.000286 | 0.7425 mPa·s
313.15 K, 101 kPa, x1 = 0.0003 | 0.7345 mPa·s
313.15 K, 101 kPa, x1 = 0.000358 | 0.7623 mPa·s
313.15 K, 101.3 kPa, x1 = 0.00018 | 0.698 mPa·s
313.15 K, 101.3 kPa, x1 = 0.0003604 | 0.739 mPa·s
313.15 K, 101.3 kPa, x1 = 0.00054 | 0.784 mPa·s
313.15 K, 101.3 kPa, x1 = 0.0007203 | 0.822 mPa·s
313.15 K, 101.3 kPa, x1 = 0.0009005 | 0.866 mPa·s
313.15 K, 101.3 kPa, x1 = 0.00108 | 0.904 mPa·s
313.15 K, 101.3 kPa, x1 = 0.00126 | 0.946 mPa·s
313.15 K, 101.3 kPa, x1 = 0.001439 | 0.989 mPa·s
315.15 K, 101 kPa, x1 = 0.0002 | 0.6863 mPa·s
315.15 K, 101 kPa, x1 = 0.0004 | 0.7114 mPa·s
318.15 K, 101 kPa, x1 = 7.6e-05 | 0.6228 mPa·s
318.15 K, 101 kPa, x1 = 0.0001 | 0.6275 mPa·s
318.15 K, 101 kPa, x1 = 0.00015 | 0.6432 mPa·s
318.15 K, 101 kPa, x1 = 0.000216 | 0.6631 mPa·s
318.15 K, 101 kPa, x1 = 0.000286 | 0.683 mPa·s
318.15 K, 101 kPa, x1 = 0.0003 | 0.6686 mPa·s
318.15 K, 101 kPa, x1 = 0.000358 | 0.7027 mPa·s
